The record followed here is US20240238300A1, “TREATMENT METHODS FOR SUBJECTS WITH CANCER HAVING AN ABERRATION IN EGFR AND/OR HER2” (TAIHO PHARMACEUTICAL CO., LTD., priority 2021, published 2024).

Series [1] relates to NCI-N87 human gastric carcinoma xenografts. Description: antitumor effect in nude mice bearing NCI-N87 xenografts. It counts as in vivo. The note with it: 12.5 mg/kg/day orally once daily 14 days, Day 15. The protocol: The antitumor effect of Compound (1) was evaluated in nude mice bearing HER2-overexpressing NCI-N87 human gastric carcinoma xenografts. Compound (1) dosing suspensions using 0.5% w/v hydroxypropyl methylcellulose (HPMC) as vehicle were prepared at 4 dose levels (3.1, 6.3, 12.5, and 25.0 mg/kg/day) and administered orally once daily for 14 days. In addition, the antitumor effect of poziotinib, which is a pan-ErbB inhibitor and currently under clinical development for the treatment of cancer with epidermal growth factor receptor containing HER2 exon 20 insertion mutations, was also evaluated using this model. Poziotinib was administered orally once daily for 14 days at 2 dose levels (0.5 or 1.0 mg/kg/day). The control group received 0.5% w/v HPMC once daily for 14 days.

Another series concerns NCI-H1781 cells. Kind of series: growth inhibitory effect in human cancer cell lines (GI50). It counts as cell-based. The note with it: lung cancer, HER2 DelG776insVC. An excerpt: (§1) Among the 9 cell lines tested, HER2 gene amplification has previously been reported in BT-474 cells (breast cancer) and NCI-N87 cells (gastric cancer), while HER2 gene mutation (DelG776insVC) has been reported in NCI-H1781 cells (lung cancer).

In another series the test system is NCI-N87 cells. Described as above. It counts as cell-based. The following applies: gastric cancer, HER2 gene amplification.
From the text: as §1

For the next series, the system named is BT-474 cells. Described as above. The following applies: breast cancer, HER2 gene amplification. It counts as cell-based.
From the text: as §1

A further series has as its target HER2 A775_G776insYVMA (Homo sapiens, UniProt P04626, INS775YVMA). Kind of series: in vitro kinase assay (enzyme assay). It counts as biochemical. The following applies: human recombinant enzyme; read-out: IC50 (Mean ± SD). Here is the method:
(§2) To investigate the inhibitory effect of Compound (1) on HER2 enzyme activity, the mean±standard deviation (SD) of half-maximal inhibitory concentration (IC50) values of Compound (1) against human recombinant enzymes of HER2 and its mutants were determined by in vitro kinase assays (Table 1).

For the next series, the target named is HER2 (Homo sapiens, UniProt P04626). Description: in vitro kinase assay (enzyme assay). It counts as biochemical. The note with it: human recombinant enzyme; read-out: IC50 (Mean ± SD). The protocol: as §2
HER2, sequence (P04626 23-1255): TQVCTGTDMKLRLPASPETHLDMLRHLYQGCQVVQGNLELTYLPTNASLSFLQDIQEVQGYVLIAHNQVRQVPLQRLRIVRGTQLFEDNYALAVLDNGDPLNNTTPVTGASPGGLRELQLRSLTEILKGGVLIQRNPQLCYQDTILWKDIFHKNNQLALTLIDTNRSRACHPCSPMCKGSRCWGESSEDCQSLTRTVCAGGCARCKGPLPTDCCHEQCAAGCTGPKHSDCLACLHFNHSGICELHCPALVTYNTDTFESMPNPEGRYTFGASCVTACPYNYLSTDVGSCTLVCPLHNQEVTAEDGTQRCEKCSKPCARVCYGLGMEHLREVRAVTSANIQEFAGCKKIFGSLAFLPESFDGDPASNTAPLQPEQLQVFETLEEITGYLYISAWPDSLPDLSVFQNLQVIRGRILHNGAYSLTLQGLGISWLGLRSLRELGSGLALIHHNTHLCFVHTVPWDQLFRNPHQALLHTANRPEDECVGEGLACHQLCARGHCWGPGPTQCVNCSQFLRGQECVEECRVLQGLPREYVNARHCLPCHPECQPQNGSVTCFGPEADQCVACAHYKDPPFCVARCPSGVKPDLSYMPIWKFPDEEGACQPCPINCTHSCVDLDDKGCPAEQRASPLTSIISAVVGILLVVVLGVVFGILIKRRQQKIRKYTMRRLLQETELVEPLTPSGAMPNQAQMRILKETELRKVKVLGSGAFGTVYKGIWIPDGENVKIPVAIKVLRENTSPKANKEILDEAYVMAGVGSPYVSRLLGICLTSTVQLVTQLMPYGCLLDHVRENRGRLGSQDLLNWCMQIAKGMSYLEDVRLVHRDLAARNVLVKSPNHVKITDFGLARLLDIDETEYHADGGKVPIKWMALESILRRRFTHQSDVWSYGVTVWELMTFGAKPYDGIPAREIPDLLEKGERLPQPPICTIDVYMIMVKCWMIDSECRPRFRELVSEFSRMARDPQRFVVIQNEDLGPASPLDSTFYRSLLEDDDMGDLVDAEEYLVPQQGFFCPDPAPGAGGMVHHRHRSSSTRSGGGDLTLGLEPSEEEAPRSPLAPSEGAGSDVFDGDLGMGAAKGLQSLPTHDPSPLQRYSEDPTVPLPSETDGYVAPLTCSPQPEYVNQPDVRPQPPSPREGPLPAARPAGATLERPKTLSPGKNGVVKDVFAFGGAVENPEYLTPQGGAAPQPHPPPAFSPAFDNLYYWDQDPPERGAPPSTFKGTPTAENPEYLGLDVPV
Another series addresses HER2 V777L (Homo sapiens, UniProt P04626, V777L). Kind of series: in vitro kinase assay (enzyme assay). The series is classed as biochemical. The following applies: human recombinant enzyme; read-out: IC50 (Mean ± SD). Here is the method:
as §2

The next series relates to A-431 cells. Kind of series: growth inhibitory effect in human cancer cell lines (GI50). It counts as cell-based. The note with it: wild-type EGFR gene amplification. From the text: (§3) Wild-type EGFR gene amplification without HER2 amplification has been observed in A-431 cells. HCC827 cells (lung cancer) have been reported as harboring an EGFR activating mutation (DelE746_A750). NCI-H1975 cells (lung cancer) have been reported as having activating and acquired EGFR resistance mutations (L858R and T790M).

Another series deals with HCC827 cells. The description is as above. It counts as cell-based. The following applies: lung cancer, EGFR DelE746_A750.
From the text: as §3

For series [2], the system named is NCI-H1975 EGFR D770_N771insSVD cells. The description is as above. It counts as cell-based. The note with it: lung cancer, EGFR exon 20 insertion.
Series [3] concerns NCI-N87 tumor fragment #6, clone 3. Description: refractory T-DM1 monoclonal cell line model, comparison to DS-8201a. The series is classed as in vivo, male mice. The following applies: for antitumor effect (tumor volume): 21 days. The protocol:
The obtained cell line was implanted into BALB/cAJcl-mu/nu male mice (8.0×10^6 cells in 100 μL of PBS/mouse, subcutaneous) for the efficacy test.
The tumor volumes (TV, mm) and body weights of the mice were recorded.

Series [4] relates to MDA-MB-175VII cells (DOC4-NRG1 fusion). Kind of series: growth inhibitory effect in NRG1 fusion-driven cancer cell line (GI50). The series is classed as cell-based. The following applies: Homo sapiens, mean of 3-4 independent experiments. The protocol: GI50 values were also determined for currently approved EGFR/HER2 tyrosine kinase inhibitors: afatinib, osimertinib, tucatinib, lapatinib, and neratinib, and one investigational drug (poziotinib). Mean values were determined from 3-4 independent experiments.

The subject of series [5] is MCF10A_HER2/insYVMA_v human mammary epithelial xenografts. Description: antitumor effect in nude mice bearing MCF10A_HER2/insYVMA_v xenografts. It counts as in vivo. The note with it: for T/C ratio of the mean tumor volume: Day 15. Here is the method:
The antitumor effect of Compound (1) was evaluated in a nude mouse xenograft model of MCF10A_HER2/insYVMA_v. MCF10A_HER2/insYVMA_v was established as stably growing cells in vivo derived from MCF10A HER2/insYVMA (a human mammary epithelial cell line engineered to express the HER2 exon 20 insertion mutation A775_G776insYVMA) xenografts subcutaneously transplanted into nude mice. Compound (1) suspensions (using 0.5% w/v HPMC as vehicle) were administered orally once daily to mice at doses of 7.8, 12.5, or 20.0 mg/kg/day for 14 days. The control group received 0.5% weight per volume (w/v) hydroxypropyl methylcellulose (HPMC) solution orally once daily for 14 days.
In addition, the antitumor effect of poziotinib (an irreversible inhibitor of EGFR, HER2, and HER4) was also evaluated using this model.

The test system of series [6] is intracranial NCI-N87-luc human gastric carcinoma xenografts. Description: intracranial antitumor effect with various dosing schedules, NCI-N87-luc xenografts. It counts as in vivo, nude mice. The note with it: Day 22; for T/C ratio of the mean total flux: 21 days. Here is the method: The intracranial antitumor effect of Compound (1) with various dosing schedules ((i) QD, (ii) intermittent, and (iii) 4 days-on/3 days-off) was evaluated using Compound (1) in nude mice intracranially implanted with NCI-N87-luc cells, which were engineered to stably express the luciferase gene using the HER2-overexpressing NCI-N87 human gastric carcinoma cell line.
Compound (1) dosing suspensions using 0.5% weight per volume (w/v) hydroxypropyl methylcellulose (HPMC) as vehicle were prepared with Compound (1) at 2 dose levels (25.0 or 50.0 mg/kg/day) and orally administered with various dosing schedules ((i) QD, (ii) intermittent, and (iii) 4 days-on/3 days-off) for 21 days. The (i) QD dosing schedule in this example was dosing every day on day 1 to day 21. The (ii) intermittent dosing schedule in this example used sequential 7-day periods that each comprise alternating 4 days-on and 3 days-off. That is, this schedule involved dosing on days 1, 3, 5, 7, 8, 10, 12, 14, 15, 17, 19, and 21. The (iii) 4 days-on/3 days-off dosing schedule was dosing on days 1, 2, 3, 4, 8, 9, 10, 11, 15, 16, 17, and 18. The control group received 0.5% w/v HPMC solution orally once daily for 21 days.

[7] abbreviates: (ii) intermittent 50.0 mg/kg/day.
The mark [8] stands for this setting: (iii) 4 days-on/3 days-off 50.0 mg/kg/day.

HER2 V777L, sequence (P04626 23-1255 V777L): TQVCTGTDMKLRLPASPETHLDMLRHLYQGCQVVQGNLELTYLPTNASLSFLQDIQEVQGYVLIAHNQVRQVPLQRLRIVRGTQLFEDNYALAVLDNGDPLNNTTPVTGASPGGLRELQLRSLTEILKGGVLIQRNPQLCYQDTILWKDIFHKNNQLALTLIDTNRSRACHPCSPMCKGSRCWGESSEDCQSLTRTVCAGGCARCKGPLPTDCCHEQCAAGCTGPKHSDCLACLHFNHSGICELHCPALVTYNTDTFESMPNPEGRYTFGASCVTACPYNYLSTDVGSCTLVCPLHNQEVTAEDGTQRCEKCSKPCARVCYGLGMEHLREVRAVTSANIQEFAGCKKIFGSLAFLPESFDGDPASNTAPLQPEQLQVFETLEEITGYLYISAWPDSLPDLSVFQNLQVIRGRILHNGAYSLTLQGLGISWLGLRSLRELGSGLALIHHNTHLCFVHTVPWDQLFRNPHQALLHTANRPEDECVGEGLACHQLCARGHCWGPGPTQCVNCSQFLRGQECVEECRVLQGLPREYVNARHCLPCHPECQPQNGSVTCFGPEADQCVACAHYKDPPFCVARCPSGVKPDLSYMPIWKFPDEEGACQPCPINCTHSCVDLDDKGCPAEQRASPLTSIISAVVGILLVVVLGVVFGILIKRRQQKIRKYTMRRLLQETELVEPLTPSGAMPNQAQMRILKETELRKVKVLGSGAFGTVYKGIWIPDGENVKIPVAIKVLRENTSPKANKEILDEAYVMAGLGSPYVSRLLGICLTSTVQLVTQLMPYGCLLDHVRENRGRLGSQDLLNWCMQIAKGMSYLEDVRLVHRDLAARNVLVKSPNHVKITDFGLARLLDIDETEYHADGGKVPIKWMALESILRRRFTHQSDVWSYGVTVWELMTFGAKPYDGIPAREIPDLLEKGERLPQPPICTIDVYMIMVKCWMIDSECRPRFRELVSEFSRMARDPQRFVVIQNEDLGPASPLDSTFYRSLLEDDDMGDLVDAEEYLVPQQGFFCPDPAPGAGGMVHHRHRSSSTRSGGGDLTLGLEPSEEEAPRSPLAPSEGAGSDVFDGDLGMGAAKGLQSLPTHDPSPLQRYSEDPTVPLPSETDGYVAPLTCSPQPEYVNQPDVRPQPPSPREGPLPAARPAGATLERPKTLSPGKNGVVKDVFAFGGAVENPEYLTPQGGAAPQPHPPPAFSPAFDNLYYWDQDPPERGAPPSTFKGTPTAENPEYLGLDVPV
HER2 A775_G776insYVMA, sequence (P04626 with tags, fused parts or gaps INS775YVMA limits assumed): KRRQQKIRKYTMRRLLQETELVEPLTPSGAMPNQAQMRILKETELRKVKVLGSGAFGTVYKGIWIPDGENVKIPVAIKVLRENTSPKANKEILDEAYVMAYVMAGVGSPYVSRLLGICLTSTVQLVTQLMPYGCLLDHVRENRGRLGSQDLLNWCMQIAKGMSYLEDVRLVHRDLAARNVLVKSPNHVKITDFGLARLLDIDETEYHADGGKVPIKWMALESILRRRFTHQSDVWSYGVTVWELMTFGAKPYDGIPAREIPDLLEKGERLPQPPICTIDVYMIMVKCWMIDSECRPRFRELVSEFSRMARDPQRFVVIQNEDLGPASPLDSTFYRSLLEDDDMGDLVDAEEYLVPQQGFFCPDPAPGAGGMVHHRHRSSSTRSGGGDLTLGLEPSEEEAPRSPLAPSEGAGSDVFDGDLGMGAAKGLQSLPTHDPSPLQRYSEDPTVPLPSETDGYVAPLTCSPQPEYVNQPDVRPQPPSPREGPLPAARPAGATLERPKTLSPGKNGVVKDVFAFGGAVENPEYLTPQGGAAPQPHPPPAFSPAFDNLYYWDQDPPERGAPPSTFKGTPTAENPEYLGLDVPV

For the compound `C=CC(=O)N1C[C@H](n2c(C#CC3CC3)c(C(=O)N[C@H](C)c3ccccc3)c3c(N)ncnc32)C[C@@H]1C` [Compound (1), 7-((3R,5S)-1-acryloyl-5-methylpyrrolidin-3-yl)-4-amino-6-(cyclopropylethynyl)-N—((R)-1-phenylethyl)-7H-pyrrolo[2,3-d]pyrimidine-5-carboxamide], the “T/C ratio of the mean tumor volumes” value in series [1] was found to be 7.3%. The GI50 with NCI-H1781 cells came to 5.85 ± 2.83 nM; in the series on NCI-N87 cells, 0.891 ± 0.312 nM; in the series on BT-474 cells, 2.05 ± 0.48 nM; with A-431 cells, 8.64 ± 1.07 nM; in the series with HCC827 cells, 2.13 ± 0.61 nM; in series [2] it was 8.71 ± 4.56 nM. It took 1.2 ± 0.3 nM to inhibit growth in series [4] by half (GI50). Besides, the IC50 on HER2 A775_G776insYVMA was 1 ± 0.2 nM; on HER2 it was 5.6 ± 0.3 nM; on HER2 V777L it was 2.1 ± 0.8 nM. Besides, the entries for the “antitumor effect (tumor volume)” value in series [3] (12.5 mg/kg/day PO once per day) and in series [3] (20 mg/kg/day PO once per day) were “arresting tumor growth” and “inducing tumor regression”, respectively. Besides, the body weight loss result in [3] (12.5 or 20 mg/kg) was “did not cause body weight loss”. Also, the entries for the “T/C ratio of the mean tumor volume” value in [5] (7.8 mg/kg/day orally once daily 14 days), in series [5] (12.5 mg/kg/day orally once daily 14 days) and in series [5] (20.0 mg/kg/day orally once daily 14 days) were 52.8%, 17.4% and 8.7%, respectively. In addition, in series [5] (14 days treatment), the “toxicity (deaths, clinical signs, body weight loss ≥20%)” value is “acceptable toxicity”. The “T/C ratio of the mean total flux” value is 3.8% in series [6] (setting [7]) and 8.9% in [6] (setting [8]). The “mean body weight change” value in [6] (setting [7]) is on record as −1.0%; in [6] (setting [8]) it was 0.3%.

The term GI50 denotes the concentration that inhibits growth by half. High values mean less potent growth inhibition, low ones more potent growth inhibition. As a reminder, the IC50 is the concentration that inhibits the measured activity by half.
